Laboratory results as given in patent publication US6531598B1, “Naphthostyrils” (Hoffmann-La Roche Inc., priority 2001, dated 2003).
Counter-ions that a name gives are not always drawn.

Tests used:
[1] = biological target: T1, human Cyclin E/CDK2 (Homo sapiens, UniProt P24941); assay: CDK2 FlashPlate Assay; assay type: biochemical; conditions: inhibition of Rb phosphorylation, 33P-ATP, 25 minutes at room temperature
T1 construct: made in house; host or cells: insect cells
Procedure: To determine inhibition of CDK2 activity, purified recombinant retinoblastoma (Rb) protein was coated on 96 well FlashPlates (New England Nuclear, Boston, Mass.). […] Recombinant active human Cyclin E/CDK2 complexes were partially purified from extracts of insect cells. […] Plates were incubated for 25 minutes at room temperature with shaking, then washed and counted in the Topcount scintillation counter (Packard Instrument Co., Downers Grove, Ill.). Dilutions of test compounds were tested in duplicate in each assay. The percent inhibition of Rb phosphorylation, which is a measure of the inhibition of CDK2 activity, was determined according to the following formula: [formula]
where “test compound” refers to the average counts per minute of the test duplicates, “nonspecific” refers to the average counts per minute when no Cyclin E/CDK2 was added, and “total” refers to the average counts per minute when no compound was added.

[2] = tested on: RKO colon carcinoma cell line; assay: Tetrazolium dye proliferation assay, RKO; assay type: cell-based; conditions: Colon carcinoma cell, 120 h; MTT, 5 days post addition of test compound, 500 cell per well
Procedure: (§1) The cell lines used were MDA-MB435, a breast carcinoma dell line and RKO, a colon carcinoma cell line.
(§2) Teh estrogen receptor negative epithelial breast carcinoma line (MDA-MB435) was purchased from American Type Cell Culture Collection (ATCC; Rockville, Md.) and was grown in the medium recommended by ATCC. For analysis of the test compounds on growth of these cells, the cells were plated at 2000 cells per well in a 96-well tissue culture plate, and were incubated overnight at 37° C. with 5% CO2. The next day, the test compounds were dissolved in 100% dimethyl sulfoxide (DMSO) to yield a 10 mM stock solution. […] The compounds were then serially diluted in medium with 1.2% DMSO. One-fourth final volume of the diluted compounds was transferred to 96 well plates. Test compounds were assayed in duplicate. DMSO was added to a row of “control cells” such that the final concentration of DMSO in each well was 0.3%. Wells to which no cells were added served as the “blank.” Wells to which no inhibitor was added served as “no inhibitor control”. The plates were returned to the incubator, and 5 days post addition of test compound, were analyzed as described below.
(§3) 3-(4,5-Dimethylthiazole-2-yl)-2,5-diphenyl-2H-tetrazolium bromide (thiazolyl blue; MTT) was added to each well to yield a final concentration of 1 mglmL. The plates were then incubated at 37° C. for 3 hours. The plates were centrifuged at 1000 rpm for 5 minutes prior to aspiration of the MTT-containing medium. The MTT-containing medium was then removed and 100 μL 100% EtOH was added to each well to dissolve the resulting formazan metabolite. To ensure complete dissolution, plates were shaken for 15 minutes at room temperature. Absorbencies were read in a microliter plate reader (Molecular Dynamics) at a wavelength of 570 nm with a 650 nm reference. Percent inhibition was calculated by subtracting the absorbency of the blank (no cell) wells from all wells, then subtracting the division of the average absorbency of each test duplicate by the average of the controls from 1.00. Inhibitory concentrations (IC50) were determined from the linear regression of a plot of the logarithm of the concentration versus the percent inhibition.
The colon carcinoma line RKO was also obtained from the ATCC and was tested according to the same protocol provided above except that the cell line RKO was plated at 500 cell per well.

[3] = tested on: MDA-MB435 breast carcinoma cell line; assay: Tetrazolium dye proliferation assay, MDA-MB435; assay type: cell-based; conditions: Homo sapiens, MDA-MB-435, 120 h; MTT, 5 days post addition of test compound, 2000 cells per well
Procedure: as §1, §2, §3

Measured: IC50

O=C1Nc2ccc(F)c3c(N4CCNCC4)cc(-c4ccc[nH]4)c1c23 [Example 24, 6-Fluoro-5-piperazin-1-yl-3-(1H-pyrrol-2-yl)-1H-benzo[cd]indol-2-one acetic acid salt]
≤ 10 µM: all assays above

O=C1Nc2ccc(F)c3c(N4CCC(O)CC4)cc(-c4ccc[nH]4)c1c23 [Example 33, 6-Fluoro-5-(4-hydroxy-piperidin-1-yl)-3-(1H-pyrrol-2-yl)-1H-benzo[cd]indol-2-one]
≤ 10 µM: all assays above

O=C1Nc2ccc(F)c3c(OCCO)cc(-c4ccc[nH]4)c1c23 [Example 16, 6-Fluoro-5-(2-hydroxyethoxy)-3-(1H-pyrrol-2-yl)-1H-benzo[cd]indol-2-one]
≤ 10 µM: all assays above

O=C1Nc2ccc(F)c3c(NCCO)cc(-c4ccc[nH]4)c1c23 [Example 15, 6-Fluoro-5-(2-hydroxy-ethylamino)-3-(1H-pyrrol-2-yl)-1H-benzo[cd]indol-2-one]
≤ 10 µM: all assays above
